According to article PMC3078945 (Clinical cancer research : an official journal of the …, 2011):
Read-outs that look alike come from different tables or passages of the source.

How the values were obtained:
[1] = tested on: patients with advanced solid tumors; conditions: for Lymphopenia G4 (number of patients) / Nausea/vomiting G2 (number of patients) / Nausea/vomiting G3 (number of patients) / AST/ALT G2 (number of patients) / Fatigue G4 (number of patients) / Hyponatremia G2 (number of patients) / Hyponatremia G3 (number of patients) / Hyponatremia G4 (number of patients) / Lymphopenia G2 (number of patients) / Lymphopenia G3 (number of patients): cycle 1
[2] = target: sphingosine kinase 1 (SphK); conditions: cited from earlier work
[3] = target: Protein Kinase C; conditions: PKC; cited from earlier work
[4] = tested on: patients; conditions: cited from earlier work
[5] = cited from earlier work
[6] = tested on: solid tumor cells; conditions: safingol alone; cited from earlier work
[7] = cited from earlier work; remark: listed apart in the source
[8] = tested on: xenograft; conditions: cited from earlier work
[9] = tested on: mice; conditions: mouse, in vivo; cited from earlier work
[10] = cohort 5 (safingol 360, cisplatin 60 mg/m^2), N=3
[11] = cohort 6 (safingol 480, cisplatin 60 mg/m^2), N=3
[12] = cohort 7 (safingol 600, cisplatin 60 mg/m^2), N=3
[13] = cohort 8 (safingol 750, cisplatin 60 mg/m^2), N=6
[14] = cohort 9 (safingol 930, cisplatin 60 mg/m^2), N=6
[15] = cohort 10 (safingol 840, cisplatin 60 mg/m^2), N=6

For CCCCCCCCCCCCCCC[C@H](O)[C@@H](N)CO [Safingol, (2S,3S)-2-amino-1,3-octadecanediol], the “Lymphopenia G4 (number of patients)” value [1, 10] was 0, the “Nausea/vomiting G2 (number of patients)” value [1, 10] was 0 and the “Nausea/vomiting G3 (number of patients)” value [1, 10] was 0. The “AST/ALT G2 (number of patients)” value [1, 11] was 0, the “Fatigue G4 (number of patients)” value [1, 11] was 0 and the “Hyponatremia G2 (number of patients)” value [1, 11] was 0. For the same molecule, the “Hyponatremia G3 (number of patients)” value [1, 11] was 0, the “Hyponatremia G4 (number of patients)” value [1, 11] was 0 and the “Lymphopenia G2 (number of patients)” value [1, 11] was 0. For the same molecule, the “Lymphopenia G3 (number of patients)” value [1, 11] was 0, the “Lymphopenia G4 (number of patients)” value [1, 11] was 0 and the “Nausea/vomiting G2 (number of patients)” value [1, 11] was 0. The “Nausea/vomiting G3 (number of patients)” value [1, 11] was 0, the “AST/ALT G2 (number of patients)” value [1, 12] was 0 and the “Fatigue G4 (number of patients)” value [1, 12] was 0. The “Hyponatremia G2 (number of patients)” value [1, 12] was 0, the “Hyponatremia G3 (number of patients)” value [1, 12] was 0 and the “Hyponatremia G4 (number of patients)” value [1, 12] was 0. The “Lymphopenia G2 (number of patients)” value [1, 12] was 0, the “Lymphopenia G3 (number of patients)” value [1, 12] was 0 and the “Lymphopenia G4 (number of patients)” value [1, 12] was 0. For the same molecule, the “Nausea/vomiting G2 (number of patients)” value [1, 12] was 0, the “Nausea/vomiting G3 (number of patients)” value [1, 12] was 0 and the “AST/ALT G2 (number of patients)” value [1, 13] was 1. The “Fatigue G4 (number of patients)” value [1, 13] was 0, the “Hyponatremia G2 (number of patients)” value [1, 13] was 0 and the “Hyponatremia G3 (number of patients)” value [1, 13] was 0. The “Hyponatremia G4 (number of patients)” value [1, 13] was 0, the “Lymphopenia G2 (number of patients)” value [1, 13] was 0 and the “Lymphopenia G3 (number of patients)” value [1, 13] was 0. The “Lymphopenia G4 (number of patients)” value [1, 13] was 0, the “Nausea/vomiting G2 (number of patients)” value [1, 13] was 0 and the “Nausea/vomiting G3 (number of patients)” value [1, 13] was 0. The “AST/ALT G2 (number of patients)” value [1, 14] was 1, the “Fatigue G4 (number of patients)” value [1, 14] was 0 and the “Hyponatremia G2 (number of patients)” value [1, 14] was 0. The “Hyponatremia G3 (number of patients)” value [1, 14] was 1, the “Hyponatremia G4 (number of patients)” value [1, 14] was 0 and the “Lymphopenia G2 (number of patients)” value [1, 14] was 0. For the same molecule, the “Lymphopenia G3 (number of patients)” value [1, 14] was 2, the “Lymphopenia G4 (number of patients)” value [1, 14] was 0 and the “Nausea/vomiting G2 (number of patients)” value [1, 14] was 0. For the same molecule, the “Nausea/vomiting G3 (number of patients)” value [1, 14] was 0, the “AST/ALT G2 (number of patients)” value [1, 15] was 0 and the “Fatigue G4 (number of patients)” value [1, 15] was 0. For the same molecule, the “Hyponatremia G2 (number of patients)” value [1, 15] was 0, the “Hyponatremia G3 (number of patients)” value [1, 15] was 2 and the “Hyponatremia G4 (number of patients)” value [1, 15] was 0. The “Lymphopenia G2 (number of patients)” value [1, 15] was 0, the “Lymphopenia G3 (number of patients)” value [1, 15] was 0 and the “Lymphopenia G4 (number of patients)” value [1, 15] was 0. For the same molecule, the “Nausea/vomiting G2 (number of patients)” value [1, 15] was 1, the “Nausea/vomiting G3 (number of patients)” value [1, 15] was 0 and the maximum administered dose ([1]; exceeded the MTD) was 930 mg/m^2. The “DLT from safingol (principal DLT)” value ([1]; in combination with cisplatin) was “hepatic enzyme elevation”, the “overall tolerability of the drug combination” value ([1]; in vivo) was “well tolerated with no major increase in toxicities over those of cisplatin alone” and the “maximum tolerated dose (MTD)” value ([1]; safingol over 120 min with cisplatin 60 mg/m^2, every 3 weeks) was 840 mg/m^2. For the same molecule, the “recommended phase 2 dose” value ([1]; with cisplatin 60 mg/m^2, every 3 weeks) was 840 mg/m^2, the Ki ([2]; SphK) was 5 µM and the Ki ([2]; competitive inhibitor of SphK) was about 5 µM. The Ki [3] was 33 µM, the safingol-associated toxicity ([4]; phase I study with doxorubicin) was “a single episode of grade 1 hemolysis” and the hepatic toxicity ([4]; safingol doses not exceeding 120 mg/m^2 with doxorubicin) was “no hepatic toxicity was observed”. For the same molecule, the dose-limiting toxicity ([4]; safingol up to 120 mg/m^2 every three weeks with doxorubicin) was “no dose-limiting toxicity observed”, the “pharmacokinetic interaction with doxorubicin” value ([5]; phase I study with doxorubicin) was “No significant pharmacokinetic interaction” and the Cmax ([5]; read-out: mean Cmax, safingol 60 mg/m^2, study of safingol and doxorubicin) was 1300 nM. For the same molecule, the cell death mechanism [6] was “induces cell death by autophagy”, the “effect on in vitro antitumor effect of doxorubicin, cisplatin and mitomycin C” value [7] was “increases the in vitro antitumor effect” and the “effect on antitumor activity of cisplatin in xenografts” value [8] was “can increase the antitumor activity of cisplatin without increasing toxicity”. For the same molecule, the “hepatic toxicity in mice” value [9] was “increases in ALT and histological changes consistent with hepatocyte autophagy”.
